experiment: Inhibition of HCV NS5B RdRp; parameters: species or system Hepacivirus hominis

Row | IC50 | SMILES
1 | 49 µM | COC(=O)[C@H](Cc1c[nH]c2ccc(O)cc12)NC(=O)c1ccc2nc(-c3ccc(C)cc3)c(-c3ccc(C)cc3)nc2c1
2 | 1.2 µM | O=C(O)/C=C/c1ccc(NC(=O)C2(NC(=O)c3ccc4nc(-c5ccc(F)cc5)c(-c5ccc(F)cc5)nc4c3)CCCC2)cc1
3 | 100 µM | COC(=O)COc1ccc2[nH]cc(C[C@H](NC(=O)c3ccc4nc(-c5ccc(F)cc5)c(-c5ccc(F)cc5)nc4c3)C(=O)OC)c2c1
4 | 1.3 µM | O=C(O)/C=C/c1ccc(NC(=O)c2ccc3nc(C4CCCCC4)c(-c4ccccc4)nc3c2)cc1
5 | 5 µM | O=C(N[C@@H](Cc1c[nH]c2ccc(O)cc12)C(=O)O)c1ccc2nc(C3CCCCC3)c(-c3ccccc3)nc2c1
6 | 33 µM | O=C(N[C@@H](Cc1c[nH]c2ccccc12)C(=O)O)c1ccc2nc(-c3ccco3)c(-c3ccco3)nc2c1
7 | > 100 µM | COC(=O)[C@H](Cc1c[nH]c2ccccc12)NC(=O)c1ccc2nc(-c3cccc(OC)c3)c(-c3cccc(OC)c3)nc2c1
8 | 15 µM | COc1cccc(-c2nc3ccc(C(=O)N[C@@H](Cc4c[nH]c5ccc(O)cc45)C(=O)O)cc3nc2-c2cccc(OC)c2)c1
9 | 16 µM | O=C(N[C@@H](Cc1c[nH]c2ccc(O)cc12)C(=O)O)c1ccc2nc(-c3ccco3)c(-c3ccco3)nc2c1
10 | 3.4 µM | O=C(N[C@@H](Cc1c[nH]c2ccccc12)C(=O)O)c1ccc2nc(C3CCCCC3)c(-c3ccc(F)cc3)nc2c1
11 | > 100 µM | CCOC(=O)/C=C/c1ccc(NC(=O)C2(NC(=O)c3ccc4nc(-c5ccc(F)cc5)c(-c5ccc(F)cc5)nc4c3)CCCC2)cc1
12 | 37 µM | CCOC(=O)/C=C/c1ccc(NC(=O)C2(NC(=O)c3ccc4nc(-c5ccc(F)cc5)c(-c5ccc(F)cc5)nc4c3)CCC2)cc1
13 | > 100 µM | O=C(O)c1ccc2nc(-c3ccccn3)c(-c3ccccn3)nc2c1
14 | 0.69 µM | O=C(O)/C=C/c1ccc(NC(=O)C2(NC(=O)c3ccc4nc(-c5ccc(F)cc5)c(-c5ccc(F)cc5)nc4c3)CCC2)cc1
15 | 3.7 µM | O=C(N[C@@H](Cc1c[nH]c2ccccc12)C(=O)O)c1ccc2nc(C3CCCCC3)c(-c3ccccc3)nc2c1
16 | > 100 µM | COc1cccc(-c2nc3ccc(C(=O)O)cc3nc2-c2cccc(OC)c2)c1
17 | > 100 µM | COC(=O)[C@H](Cc1c[nH]c2ccccc12)NC(=O)c1ccc2nc(-c3ccco3)c(-c3ccco3)nc2c1
18 | 1.6 µM | O=C(N[C@@H](Cc1c[nH]c2ccccc12)C(=O)O)c1ccc2nc(-c3ccc(F)cc3)c(C3CCCCC3)nc2c1
19 | 40 µM | Cc1ccc(-c2nc3ccc(C(=O)O)cc3nc2-c2ccc(C)cc2)cc1
20 | > 100 µM | COC(=O)[C@H](Cc1c[nH]c2ccccc12)NC(=O)c1ccc2nc(-c3ccc(C)cc3)c(-c3ccc(C)cc3)nc2c1
21 | 0.6 µM | O=C(N[C@@H](Cc1c[nH]c2ccc(O)cc12)C(=O)O)c1ccc2nc(-c3ccccc3)c(C3CCCCC3)nc2c1
22 | 11 µM | O=C(N[C@@H](Cc1c[nH]c2ccc(O)cc12)C(=O)O)c1ccc2nc(-c3ccccc3)c(-c3ccccc3)nc2c1
23 | 5.1 µM | CCOC(=O)/C=C/c1ccc(NC(=O)C2(NC(=O)c3ccc4nc(C5CCCCC5)c(-c5ccc(F)cc5)nc4c3)CCC2)cc1
24 | > 100 µM | COC(=O)[C@H](Cc1c[nH]c2ccccc12)NC(=O)c1ccc2nc(-c3ccccc3)c(-c3ccccc3)nc2c1
25 | > 100 µM | CCOC(=O)/C=C/c1ccc(NC(=O)c2ccc3nc(-c4ccc(F)cc4)c(-c4ccc(F)cc4)nc3c2)cc1
26 | 4.1 µM | O=C(N[C@@H](Cc1c[nH]c2ccc(O)cc12)C(=O)O)c1ccc2nc(C3CCCCC3)c(-c3ccc(F)cc3)nc2c1
27 | 53 µM | COC(=O)/C=C/COc1ccc2[nH]cc(C[C@H](NC(=O)c3ccc4nc(-c5ccc(F)cc5)c(-c5ccc(F)cc5)nc4c3)C(=O)OC)c2c1

Row | IC50 | SMILES
28 | 1.9 µM | O=C(N[C@@H](Cc1c[nH]c2ccccc12)C(=O)O)c1ccc2nc(-c3ccc(F)cc3)c(-c3ccc(F)cc3)nc2c1
29 | > 100 µM | O=C(N[C@@H](Cc1c[nH]c2ccccc12)C(=O)O)c1ccc2nc(-c3ccccn3)c(-c3ccccn3)nc2c1
30 | 8.6 µM | COC(=O)[C@H](Cc1c[nH]c2ccc(OCC(N)=O)cc12)NC(=O)c1ccc2nc(-c3ccc(F)cc3)c(-c3ccc(F)cc3)nc2c1
31 | 1.8 µM | O=C(N[C@@H](Cc1c[nH]c2ccccc12)C(=O)O)c1ccc2nc(-c3ccccc3)c(C3CCCCC3)nc2c1
32 | 5.5 µM | O=C(O)c1ccc2nc(-c3ccc(F)cc3)c(-c3ccc(F)cc3)nc2c1
33 | > 100 µM | COc1cccc(-c2nc3ccc(C(=O)N[C@@H](Cc4c[nH]c5ccccc45)C(=O)O)cc3nc2-c2cccc(OC)c2)c1
34 | 1.8 µM | O=C(Nc1ccc(-c2ccc(C(=O)O)o2)cc1)c1ccc2nc(C3CCCCC3)c(-c3ccccc3)nc2c1
35 | 4.1 µM | O=C(O)/C=C/c1ccc(NC(=O)c2ccc3nc(C4CCCCC4)c(-c4ccc(F)cc4)nc3c2)cc1
36 | 1.7 µM | O=C(O)COc1ccc2[nH]cc(C[C@H](NC(=O)c3ccc4nc(-c5ccc(F)cc5)c(-c5ccc(F)cc5)nc4c3)C(=O)O)c2c1
37 | 15 µM | O=C(N[C@@H](Cc1c[nH]c2ccccc12)C(=O)O)c1ccc2nc(-c3ccccc3)c(-c3ccccc3)nc2c1
38 | 3.2 µM | NC(=O)COc1ccc2[nH]cc(C[C@H](NC(=O)c3ccc4nc(-c5ccc(F)cc5)c(-c5ccc(F)cc5)nc4c3)C(=O)O)c2c1
39 | 2.2 µM | O=C(O)/C=C/COc1ccc2[nH]cc(C[C@H](NC(=O)c3ccc4nc(-c5ccc(F)cc5)c(-c5ccc(F)cc5)nc4c3)C(=O)O)c2c1
40 | > 100 µM | COC(=O)[C@H](Cc1c[nH]c2ccccc12)NC(=O)c1ccc2nc(-c3ccc(F)cc3)c(-c3ccc(F)cc3)nc2c1
41 | 72 µM | COC(=O)[C@H](Cc1c[nH]c2ccc(O)cc12)NC(=O)c1ccc2nc(-c3ccccc3)c(-c3ccccc3)nc2c1
42 | 26 µM | COC(=O)[C@H](Cc1c[nH]c2ccc(O)cc12)NC(=O)c1ccc2nc(-c3ccco3)c(-c3ccco3)nc2c1
43 | 1.3 µM | CCOC(=O)/C=C/c1ccc(NC(=O)C2(NC(=O)c3ccc4nc(-c5ccc(F)cc5)c(C5CCCCC5)nc4c3)CCC2)cc1
44 | 4.6 µM | O=C(N[C@@H](Cc1c[nH]c2ccc(O)cc12)C(=O)O)c1ccc2nc(-c3ccc(F)cc3)c(C3CCCCC3)nc2c1
45 | 4.6 µM | O=C(O)/C=C/c1ccc(NC(=O)c2ccc3nc(-c4ccc(F)cc4)c(C4CCCCC4)nc3c2)cc1
46 | 5.5 µM | COC(=O)[C@H](Cc1c[nH]c2ccc(O)cc12)NC(=O)c1ccc2nc(-c3ccc(F)cc3)c(-c3ccc(F)cc3)nc2c1
47 | 6.1 µM | Cc1ccc(-c2nc3ccc(C(=O)N[C@@H](Cc4c[nH]c5ccc(O)cc45)C(=O)O)cc3nc2-c2ccc(C)cc2)cc1
48 | 1.3 µM | O=C(N[C@@H](Cc1c[nH]c2ccc(O)cc12)C(=O)O)c1ccc2nc(-c3ccc(F)cc3)c(-c3ccc(F)cc3)nc2c1
49 | 17 µM | O=C(O)/C=C/c1ccc(NC(=O)c2ccc3nc(-c4ccc(F)cc4)c(-c4ccc(F)cc4)nc3c2)cc1
50 | > 100 µM | COC(=O)[C@H](Cc1c[nH]c2ccccc12)NC(=O)c1ccc2nc(-c3ccccn3)c(-c3ccccn3)nc2c1
51 | 79 µM | O=C(O)c1ccc2nc(-c3ccccc3)c(-c3ccccc3)nc2c1
52 | 1.6 µM | O=C(Nc1ccc(-c2ccc(C(=O)O)o2)cc1)c1ccc2nc(-c3ccccc3)c(C3CCCCC3)nc2c1
53 | 17 µM | O=C(O)c1ccc2nc(-c3ccco3)c(-c3ccco3)nc2c1
54 | > 100 µM | COC(=O)[C@H](Cc1c[nH]c2ccc(O)cc12)NC(=O)c1ccc2nc(-c3cccc(OC)c3)c(-c3cccc(OC)c3)nc2c1

From ChEMBL document CHEMBL1139122, “Structure-activity relationship (SAR) studies of quinoxalines as novel HCV NS5B RNA-dependent RNA polymerase inhibitors” (Bioorg Med Chem Lett, 2007)
